Measurements: ChEMBL document CHEMBL5344418, “Recent developments in antimalarial activities of 4-aminoquinoline derivatives” (Eur J Med Chem, 2023)

How the values were obtained:
Hemozoin [1] = assay: Inhibition of Beta-hematin formation in Plasmodium falciparum K1 by spectrophotometric analysis
Hemozoin [2] = assay: Inhibition of Beta-hematin formation in Plasmodium falciparum 3D7 by spectrophotometric analysis
[3] = Cytotoxicity against African green monkey Vero cells assessed as reduction in cell viability incubated for 72 hrs by MTT assay; format: toxicity, cell-based; conditions: chlorocebus sabaeus
Plasmodium falciparum [4] = assay: Antimalarial activity against chloroquine-sensitive Plasmodium falciparum 3D7 assessed as reduction in parasite growth incubated for 72 hrs by SYBR Green staining based fluorescence analysis; format: functional, organism-based; conditions: 3D7, 72 h
Plasmodium falciparum [5] = assay: Antimalarial activity against chloroquine-resistant Plasmodium falciparum K1 assessed as reduction in parasite growth incubated for 72 hrs by SYBR Green staining based fluorescence analysis; format: functional, organism-based; conditions: K1, 72 h
[6] = Cytotoxicity against Chinese hamster CHO cells assessed as reduction in cell viability by MTT assay; format: toxicity, cell-based; conditions: Chinese hamster (Cricetulus griseus)
Plasmodium falciparum [7] = assay: Antiplasmodial activity against chloroquine-sensitive Plasmodium falciparum NF54 by lactate dehydrogenase assay; format: functional, organism-based
[8] = Cytotoxicity against African green monkey Vero cells assessed as reduction in cell viability incubated for 24 hrs by fluorescence based analysis; format: toxicity; conditions: African green monkey (Chlorocebus sabaeus)

Compound	IC50 (Hemozoin [1]) [nM]	IC50 (Hemozoin [2]) [nM]	IC50 [6] [nM]	IC50 (Plasmodium falciparum [7]) [nM]	also measured
Cc1ccsc1-c1cncn1CCNc1ccnc2cc(Cl)ccc12	460	5000			
Oc1ccc(-c2cncn2CCNc2ccnc3cc(Cl)ccc23)cc1	5000	3790			
CC(C)CC(CN1CCN(C)CC1)N(C)c1ccnc2cc(Cl)ccc12 (centres undefined)					CC50 at 72 h [3]: 36600 nM; IC50 (Plasmodium falciparum [4]): 60 nM; IC50 (Plasmodium falciparum [5]): 260 nM
Clc1ccc2c(NCCn3cncc3-c3c[nH]c4ccccc34)ccnc2c1	1700	5000			
CC(C)c1ccc(-c2cncn2CCNc2ccnc3cc(Cl)ccc23)cc1	290	2830			
CN(c1ccnc2cc(C(F)(F)F)ccc12)C(Cc1ccccc1)CN1CCOCC1 (centres undefined)					IC50 (Plasmodium falciparum [4]): 3890 nM
O=C(/C=C/c1ccc(F)cc1)c1ccc(S(=O)(=O)NCCNc2cncc3cc(Cl)ccc23)cc1			14500	570	
CC(C)(C)c1cncn1CCNc1ccnc2cc(Cl)ccc12	500	140			
COc1ccc(/C=C/C(=O)c2ccc(S(=O)(=O)NCCNc3cncc4cc(Cl)ccc34)cc2)cc1			17500	490	
Clc1ccc2c(NCCn3cncc3-c3ccc[nH]3)ccnc2c1	1150	5000			
O=C(/C=C/c1ccccc1F)c1ccc(S(=O)(=O)NCCCNc2cncc3cc(Cl)ccc23)cc1			45500	860	
O=C(/C=C/c1c(F)cccc1F)c1ccc(S(=O)(=O)NCCCNc2cncc3cc(Cl)ccc23)cc1			27600	540	
CCN(CC)CC(Cc1ccccc1)N(C)c1ccnc2cc(Cl)ccc12 (centres undefined)					CC50 at 72 h [3]: 79000 nM; IC50 (Plasmodium falciparum [4]): 210 nM; IC50 (Plasmodium falciparum [5]): 330 nM
CC(C)CC(CN1CCCC1)N(C)c1ccnc2cc(C(F)(F)F)ccc12 (centres undefined)					CC50 at 72 h [3]: 52000 nM; IC50 (Plasmodium falciparum [4]): 1240 nM; IC50 (Plasmodium falciparum [5]): 1600 nM
Fc1ccc(-c2cncn2CCNc2ccnc3cc(Cl)ccc23)cc1	3040	5000			
CN(c1ccnc2cc(Cl)ccc12)C(Cc1ccccc1)CN1CCCCC1 (centres undefined)					CC50 at 72 h [3]: 69700 nM; IC50 (Plasmodium falciparum [4]): 280 nM; IC50 (Plasmodium falciparum [5]): 490 nM
COc1ccc(/C=C/C(=O)c2ccc(S(=O)(=O)NCCCNc3cncc4cc(Cl)ccc34)cc2)cc1OC			43400	320	
O=C1c2cccc(N3CCOCC3)c2C(=O)N1CCCCCCNc1ccnc2cc(Cl)ccc12					IC50 at 24 h [8]: 50800 nM
CN(c1ccnc2cc(Cl)ccc12)C(Cc1ccccc1)CN1CCOCC1 (centres undefined)					CC50 at 72 h [3]: 33500 nM; IC50 (Plasmodium falciparum [4]): 1200 nM; IC50 (Plasmodium falciparum [5]): 1380 nM
O=C1c2ccc(N3CCN(CCO)CC3)cc2C(=O)N1CCNc1ccnc2cc(Cl)ccc12					IC50 at 24 h [8]: 26000 nM

Compound	IC50 (Hemozoin [1]) [nM]	IC50 (Hemozoin [2]) [nM]	IC50 [6] [nM]	IC50 (Plasmodium falciparum [7]) [nM]	also measured
O=C1c2ccc(N3CCCCC3)cc2C(=O)N1CCCCNc1ccnc2cc(Cl)ccc12					IC50 at 24 h [8]: 27000 nM
O=C1c2ccc(N3CCN(CCO)CC3)cc2C(=O)N1CCCNc1ccnc2cc(Cl)ccc12					IC50 at 24 h [8]: 25300 nM
O=C(/C=C/c1ccco1)c1ccc(S(=O)(=O)NCCCNc2cncc3cc(Cl)ccc23)cc1			> 50000	4450	
O=C1c2ccc(N3CCN(CCO)CC3)cc2C(=O)N1CCCCNc1ccnc2cc(Cl)ccc12					IC50 at 24 h [8]: 24600 nM
O=C(/C=C/c1ccc2c(c1)OCO2)c1ccc(S(=O)(=O)NCCCNc2cncc3cc(Cl)ccc23)cc1			34100	690	
O=C(/C=C/c1ccccc1Cl)c1ccc(S(=O)(=O)NCCNc2cncc3cc(Cl)ccc23)cc1			35400	370	
O=C(/C=C/c1ccc(OC(F)(F)F)cc1)c1ccc(S(=O)(=O)NCCCNc2cncc3cc(Cl)ccc23)cc1			44000	510	
O=C1c2ccc(N3CCOCC3)cc2C(=O)N1CCCCCCNc1ccnc2cc(Cl)ccc12					IC50 at 24 h [8]: 25400 nM
Clc1ccc2c(NCCn3cncc3-c3cccc(Oc4ccccc4)c3)ccnc2c1	2620	5000			
Clc1ccc2c(NCCn3cncc3-c3cccc4ccccc34)ccnc2c1	920	5000			
O=C1c2cccc(N3CCCCC3)c2C(=O)N1CCCCNc1ccnc2cc(Cl)ccc12					IC50 at 24 h [8]: 54100 nM
O=C1c2ccc(N3CCOCC3)cc2C(=O)N1CCCCNc1ccnc2cc(Cl)ccc12					IC50 at 24 h [8]: 26900 nM
Clc1ccc2c(NCCn3cncc3-c3ccc4c(c3)OCCO4)ccnc2c1	2400	520			
Clc1ccc2c(NCCn3cncc3-c3ccc4ccccc4n3)ccnc2c1	1330	5000			
O=C1c2ccc(N3CCN(CCO)CC3)cc2C(=O)N1CCCCCCNc1ccnc2cc(Cl)ccc12					IC50 at 24 h [8]: 23300 nM
O=C1c2cccc(N3CCCCC3)c2C(=O)N1CCCCCCNc1ccnc2cc(Cl)ccc12					IC50 at 24 h [8]: 204000 nM
FC(F)(F)c1ccc(-c2cncn2CCNc2ccnc3cc(Cl)ccc23)cc1	450	210			
O=C(/C=C/c1cc(F)ccc1F)c1ccc(S(=O)(=O)NCCCNc2cncc3cc(Cl)ccc23)cc1			43700	790	
N#Cc1ccc(-c2cncn2CCNc2ccnc3cc(Cl)ccc23)cc1	730	5000			
O=C(/C=C/c1ccccc1)c1ccc(S(=O)(=O)NCCCNc2cncc3cc(Cl)ccc23)cc1			> 50000	1670	

Compound	IC50 (Hemozoin [1]) [nM]	IC50 (Hemozoin [2]) [nM]	IC50 [6] [nM]	IC50 (Plasmodium falciparum [7]) [nM]	also measured
CN(C)c1ccc(-c2cncn2CCNc2ccnc3cc(Cl)ccc23)cc1	1090	5000			
O=C1c2cccc(N3CCOCC3)c2C(=O)N1CCCCNc1ccnc2cc(Cl)ccc12					IC50 at 24 h [8]: 108000 nM
Clc1ccc2c(NCCn3cncc3-c3ccco3)ccnc2c1	970	290			
O=C(/C=C/c1ccc(F)cc1F)c1ccc(S(=O)(=O)NCCCNc2cncc3cc(Cl)ccc23)cc1			22400	500	
Clc1ccc2c(NCCn3cncc3C3CCCCC3)ccnc2c1	520	190			
CCN(CC)CC(Cc1ccccc1)N(C)c1ccnc2cc(C(F)(F)F)ccc12 (centres undefined)					IC50 (Plasmodium falciparum [4]): 1750 nM
Cc1ccc(/C=C/C(=O)c2ccc(S(=O)(=O)NCCNc3cncc4cc(Cl)ccc34)cc2)cc1			24900	390	
COc1ccc(/C=C/C(=O)c2ccc(S(=O)(=O)NCCCNc3cncc4cc(Cl)ccc34)cc2)c(OC)c1OC			22600	580	
O=C(/C=C/c1ccc(Cl)cc1)c1ccc(S(=O)(=O)NCCCNc2cncc3cc(Cl)ccc23)cc1			41200	100	
Cc1ccc(/C=C/C(=O)c2ccc(S(=O)(=O)NCCCNc3cncc4cc(Cl)ccc34)cc2)cc1			25100	370	
CN(c1ccnc2cc(C(F)(F)F)ccc12)C(Cc1ccccc1)CN1CCCCC1 (centres undefined)					IC50 (Plasmodium falciparum [4]): 1370 nM
O=C(/C=C/c1ccc(F)cc1)c1ccc(S(=O)(=O)NCCCNc2cncc3cc(Cl)ccc23)cc1			14600	280	
Clc1ccc2c(NCCn3cncc3C3CCCC3)ccnc2c1	340	79			
O=C(/C=C/c1ccc(F)c(F)c1)c1ccc(S(=O)(=O)NCCCNc2cncc3cc(Cl)ccc23)cc1			> 300000	2580	
COc1ccc(/C=C/C(=O)c2ccc(S(=O)(=O)NCCCNc3cncc4cc(Cl)ccc34)cc2)cc1			43300	110	
O=C(/C=C/c1ccccc1Br)c1ccc(S(=O)(=O)NCCCNc2cncc3cc(Cl)ccc23)cc1			43200	100	
COc1ccc(/C=C/C(=O)c2ccc(S(=O)(=O)NCCNc3cncc4cc(Cl)ccc34)cc2)cc1OC			45100	330	
CC(C)CC(CN1CCCCC1)N(C)c1ccnc2cc(Cl)ccc12 (centres undefined)					IC50 (Plasmodium falciparum [4]): 150 nM; IC50 (Plasmodium falciparum [5]): 420 nM
COc1ccc(-c2cncn2CCNc2ccnc3cc(Cl)ccc23)cc1	1780	5000			
